Tests used:
Assay type in all cases: in vivo, C57BL/6 mice
[1] = system: CCl4-induced liver fibrosis; assay: CCl4-induced liver fibrosis mouse model: liver injury and fibrosis; details: CCl4 mice
Procedure: (§1) C57BL/6 mice (20 ± 2 g) were obtained from Hangzhou Medical College Experimental Animal Center (Hangzhou, China). The animals were maintained under controlled temperature (22°C ± 1°C), humidity (50%), and light (12 h light/12 h dark). The animals were fed a standard laboratory diet and provided with free access to tap water. All animals received humane care according to institutional animal care guidelines approved by the Experimental Animal Ethical Committee of Hangzhou Medical College. Forty mice were randomly divided into six groups: (1) vehicle control (n = 7); (2) CCl4 model (n = 7); (3) CCl4 + LIN (20 mg/kg) (n = 7); (4) CCl4 + LIN (40 mg/kg) (n = 7); (5) LIN (40 mg/kg) (n = 7); and (6) CCl4 + silymarin (SIL) (200 mg/kg) (n = 5). LIN and SIL were dissolved in 0.5% CMC-Na solution. Mice were administered LIN or SIL (intragastric administration, i.g.) once per day and CCl4 (intraperitoneal injection, i.p.; mixed 1:3 in olive oil, 2 mL/kg) twice per week for 4 weeks. Mice in the vehicle control group received olive oil (i.p. twice a week, 4 weeks) and 0.5% CMC-Na (i.g. every day, 4 weeks). After treatment, the mice were sacrificed, and plasma and liver tissues were collected and further analysed.
(§2) Serum was collected from blood samples after centrifugation at 860 × g for 15 min. Serum ALT (Nanjing Jiancheng Bioengineering Institute, C010-2-1) and AST (Nanjing Jiancheng Bioengineering Institute, C009-2-1) activities were measured using kits, according to the manufacturer’s instructions. Liver hydroxyproline content was determined using the alkaline hydrolysis method, as described in the kits. Serum levels of laminin (LN) were measured using ELISA kits, according to the manufacturer’s instructions (Shanghai YANJIN Biological Technology Co., LTD, F12019).
(§3) Total RNA was extracted from liver tissues and LX-2 cells using the TRIzol reagent. cDNA was synthesised using a PrimeScript RT Master Mix kit. Real-time PCR was performed using SYBR Green premix according to the manufacturer’s instructions. Relative expression of target genes was normalised to actin, analysed by the delta-delta-CT method and given as a ratio compared with the vehicle control. Primer sequences used in this study are listed in Supplementary Material.
A sample of the liver was fixed in 10% phosphate-buffered saline (PBS)-formalin solution and embedded in paraffin. Samples were sectioned (5 μm) and stained with haematoxylin-eosin (H&E) for histological observation of liver injury and stained with Masson’s trichrome and Sirius red to observe collagen deposition in the liver.

TGF-β/Smad pathway = assay: CCl4 mouse model: liver TGF-β/Smad signalling (real-time PCR, Western blot)
Procedure: as §1, §3
Liver proteins were isolated by using a lysis buffer containing 50 mM Tris-HCl (pH7.5), 150 mM NaCl, 1 mM EDTA, 20 mM NaF, 0.5% NP-40, 10% glycerol, 1 mM phenylmethylsulphonyl fluoride, 10 μg/mL aprotinin, 10 μg/mL leupeptin, and 10 μg/mL pepstatin. The supernatants were collected after centrifugation at 3,000 g for 10 min at 4°C, and the protein concentration of each sample was determined and normalised to the same protein concentration. Protein samples were separated by sodium dodecyl sulphate-polyacrylamide gel electrophoresis and transferred onto polyvinylidene fluoride membranes. The membranes were incubated with the indicated primary and secondary antibodies, and the proteins in the membranes were visualised using a chemiluminescence kit. TGF-® antibody (CST, 3711), Smad 2/3 antibody (CST, 8685), p-Smad 2/3 antibody (CST, 8828), anti-α-SMA antibody (Santa Cruz, SC-53142), vimentin antibody (ABclonal, A19607), desmin antibody (ABclonal, A3736), GAPDH antibody (Beyotime, AF0006), and SHP2 antibody (CST, 3397). […]

mouse liver = assay: LIN alone in mice (toxicity); details: LIN alone 40 mg/kg i.g. once per day, 4 weeks
Procedure: C57BL/6 mice (20 ± 2 g) were obtained from Hangzhou Medical College Experimental Animal Center (Hangzhou, China). The animals were maintained under controlled temperature (22°C ± 1°C), humidity (50%), and light (12 h light/12 h dark). The animals were fed a standard laboratory diet and provided with free access to tap water. All animals received humane care according to institutional animal care guidelines approved by the Experimental Animal Ethical Committee of Hangzhou Medical College. […] After treatment, the mice were sacrificed, and plasma and liver tissues were collected and further analysed.
as §2, with “F12019). […]” for “F12019).”

[2] = LIN 20 and 40 mg/kg i.g. once per day, 4 weeks, p < 0.05
[3] = LIN 20 and 40 mg/kg, dose-dependent

For `C/C1=C\CCC2=C[C@@H](OC2=O)c2c(C)coc2C1` [LIN, linderalactone], the “hepatic Col1a1 mRNA level” value ([1]; LIN 20 mg/kg) was “significantly reversed”, the “hepatic Col3a1 mRNA level” value ([1]; LIN 20 mg/kg) was “significantly reversed” and the “collagen deposition (Masson's trichrome, Sirius red)” value ([1]; LIN 40 mg/kg) was “mild collagen deposition in the liver without bridging fibrosis”. The “serum ALT level” value [1, 2] was “significantly reduced”, the “serum AST level” value [1, 2] was “significantly reduced” and the liver hydroxyproline level [1, 3] was “decreased”. For the same molecule, the serum laminin level [1, 3] was “decreased”, the “CCl4-induced liver damage (H&E: immune cell infiltration, swelling, necrosis of hepatocytes)” value ([1]; LIN treatment) was “ameliorated” and the “extent of collagen deposition (Masson's trichrome, Sirius red)” value ([1]; LIN, dose-dependent) was “ameliorated”. The “hepatic TGF-β protein expression” value (TGF-β/Smad pathway; CCl4 mice, LIN 40 mg/kg, Western blot) was “reduced”, the “hepatic TGF-β mRNA expression” value (TGF-β/Smad pathway; CCl4 mice, LIN 40 mg/kg, real-time PCR) was “reduced” and the “Smad2/3 phosphorylation in the liver” value (TGF-β/Smad pathway; CCl4 mice, Western blot) was “significantly inhibited”. The “expression level of SHP2 protein” value (TGF-β/Smad pathway; liver (Figure 4D) and LX-2 cells (Figure S2), Western blot) was “do not affect”, the ALT/AST (mouse liver) was “no obvious alteration” and the “pathological changes in mouse liver tissue” value (mouse liver) was “no obvious alteration”.

Reference: article PMC9946977, “Identification of linderalactone as a natural inhibitor of SHP2 to ameliorate CCl4-induced liver fibrosis” (Frontiers in Pharmacology, 2023)
